# In patent publication US8338598B2, “Herbicidal pyrido[2,3-B]pyrazines and their use as herbicides” (Syngenta Limited, priority 2008, dated 2012):
# Columns and labels:
# Type in all cases: in vivo
# Amaranthus retroflexus [1] = experiment: Example B1 herbicidal action, post-emergence, seed trays in climatic chamber; settings: 1000 g/ha, evaluated after 9 days, 10=total damage to plant, 0=no damage to plant
# Method: (§1) Seeds of a variety of test species were sown in sterilised standard soil in seed trays each having 96 cells. After cultivation for 8 to 9 days cultivation (post-emergence) under controlled conditions in a climatic chamber (cultivation at 23/17° C., day/night; 13 hours light; 50-60% humidity), the plants were treated with an aqueous spray solution of 1000 mg/l of the active ingredient dissolved in 10% DMSO (dimethyl sulfoxide, CAS RN 67-68-5) as a solvent, equivalent to 1000 g/ha. The plants were grown in the climatic chamber after application at (24/19° C., day/night; 13 hours light; 50-60% humidity) and watered twice daily. After 9 days until the test was evaluated (10=total damage to plant, 0=no damage to plant)
# Solanum nigrum [2] = experiment: as above; settings: 1000 g/ha, evaluated after 9 days, 10=total damage to plant, 0=no damage to plant
# Method: as §1
# Nasturtium officinale = experiment: as above; settings: 1000 g/ha, evaluated after 9 days, 10=total damage to plant, 0=no damage to plant
# Method: as §1
# Stellaria media = experiment: as above; settings: 1000 g/ha, evaluated after 9 days, 10=total damage to plant, 0=no damage to plant
# Method: as §1
# Setaria faberi [3] = experiment: Example B2 herbicidal action, post-emergence, pots in glasshouse; settings: evaluated after 13 days, 10=total damage to plant, 0=no damage to plant
# Method: (§2) Seeds of a variety of test species were sown in standard soil in pots. After cultivation for one day (pre-emergence) or after 8 days cultivation (post-emergence) under controlled conditions in a glasshouse (at 24/16° C., day/night; 14 hours light; 65% humidity), the plants were sprayed with an aqueous spray solution derived from the formulation of the technical active ingredient in acetone/water (50:50) solution containing 0.5% Tween 20 (polyoxyethelyene sorbitan monolaurate, CAS RN 9005-64-5). The test plants were then grown in a glasshouse under controlled conditions in a glasshouse (at 24/16° C., day/night; 14 hours light; 65% humidity) and watered twice daily. After 13 days, the test was evaluated (10=total damage to plant; 0=no damage to plant).
# Amaranthus retroflexus [4] = experiment: as above; settings: evaluated after 13 days, 10=total damage to plant, 0=no damage to plant
# Method: as §2
# Solanum nigrum [5] = experiment: as above; settings: evaluated after 13 days, 10=total damage to plant, 0=no damage to plant
# Method: as §2
# Echinochloa crus-galli [6] = experiment: as above; settings: evaluated after 13 days, 10=total damage to plant, 0=no damage to plant
# Method: as §2
# Ipomea hederaceae [7] = experiment: as above; settings: evaluated after 13 days, 10=total damage to plant, 0=no damage to plant
# Method: as §2
# test plants [8] = experiment: Example B2 herbicidal action, pre-emergence, overall statement on the test plants; settings: Example B2 protocol, rate not stated, result in words
# Method: as §2
# test plants [9] = experiment: Example B2 herbicidal action, post-emergence, overall statement on the test plants; settings: Example B2 protocol, rate not stated, result in words
# Method: as §2
# Setaria faberi [10] = experiment: Example B2 herbicidal action, pre-emergence, pots in glasshouse; settings: 1000 g/ha, evaluated after 13 days, 10=total damage to plant, 0=no damage to plant
# Method: as §2
# Amaranthus retroflexus [11] = experiment: as above; settings: 1000 g/ha, evaluated after 13 days, 10=total damage to plant, 0=no damage to plant
# Method: as §2
# Solanum nigrum [12] = experiment: as above; settings: 1000 g/ha, evaluated after 13 days, 10=total damage to plant, 0=no damage to plant
# Method: as §2
# Echinochloa crus-galli [13] = experiment: as above; settings: 1000 g/ha, evaluated after 13 days, 10=total damage to plant, 0=no damage to plant
# Method: as §2
# Ipomea hederaceae [14] = experiment: as above; settings: 1000 g/ha, evaluated after 13 days, 10=total damage to plant, 0=no damage to plant
# Method: as §2
Compound,"AMARE, damage to plant (Amaranthus retroflexus [1])","SOLNI, damage to plant (Solanum nigrum [2])","NAAOF, damage to plant (Nasturtium officinale)","STEME, damage to plant (Stellaria media)",damage to the test plants (test plants [8]),"SETFA, damage to plant (Setaria faberi [3]; 1000 g/ha)","AMARE, damage to plant (Amaranthus retroflexus [4]; 1000 g/ha)","SOLNI, damage to plant (Solanum nigrum [5]; 1000 g/ha)","ECHCG, damage to plant (Echinochloa crus-galli [6]; 1000 g/ha)","IPOHE, damage to plant (Ipomea hederaceae [7]; 1000 g/ha)",further results
Cc1cc(-c2c(OC(=O)C(C)C)c3nccnc3[nH]c2=O)n2nc(C)cc2n1 [Compound C4],0,2,0,0,,,,,,,
O=c1[nH]c2nccnc2c(O)c1-c1cc(Cl)sc1Cl [Compound B12],6,0,0,0,,,,,,,
Cc1nc(Cl)sc1-c1c(OC(=O)C(C)(C)C)c2nccnc2n(C)c1=O [Compound B3],0,0,6,2,,,,,,,
"CC(C)C(=O)Oc1c(-c2cc(C(F)(F)F)no2)c(=O)n(C)c2nccnc12 [Compound B8, isobutyric acid 5-methyl-6-oxo-7-(3-trifluoromethyl-isoxazol-5-yl)-5,6-dihydro-pyrido[2,3-b]pyrazin-8-yl ester]",0,2,2,0,,,,,,,
"CCOC(=O)Oc1c(-c2ncc(Cl)cc2Cl)c(=O)n(C)c2nccnc12 [Compound A2, Carbonic acid 7-(3,5-dichloro-pyrid-2-yl)-5-methyl-6-oxo-5,6-dihydro-pyrido-[2,3-b]pyrazin-8-yl ester ethyl ester]",0,0,5,5,,,,,,,
"CC(C)C(=O)Oc1c(-c2c(C(F)(F)F)nn(C)c2OC(F)F)c(=O)[nH]c2nccnc12 [Compound B23, isobutyric acid 7-(5-difluoromethoxy-1-methyl-3-trifluoromethyl-1H-pyrazol-4-yl)-6-oxo-5,6-dihydro-pyrido[2,3-b]pyrazin-8-yl ester]",,,,,little or no damage,,,,,,"SETFA, damage to plant (Setaria faberi [3]; 250 g/ha): 4; AMARE, damage to plant (Amaranthus retroflexus [4]; 250 g/ha): 3; SOLNI, damage to plant (Solanum nigrum [5]; 250 g/ha): 1; ECHCG, damage to plant (Echinochloa crus-galli [6]; 250 g/ha): 2; IPOHE, damage to plant (Ipomea hederaceae [7]; 250 g/ha): 2"
"CC(C)C(=O)Oc1c(-c2ncc(Cl)cc2Cl)c(=O)n(C)c2nccnc12 [Compound A7, Isobutyric acid 7-(3,5-dichloro-pyrid-2-yl)-5-methyl-6-oxo-5,6-dihydro-pyrido[2,3-b]pyrazin-8-yl ester]",7,0,7,7,,,,,,,
Cc1nc2cc(-c3c(OC(=O)C(C)(C)C)c4nccnc4[nH]c3=O)ccc2o1 [Compound C5],,,,,little or no damage,,,,,,damage to the test plants (test plants [9]): little or no damage
Cn1nc(-c2c(O)c3nccnc3[nH]c2=O)c(C(F)(F)F)n1 [Compound B27],,,,,little or no damage,3,0,0,1,1,
Cc1nc2cc(-c3c(OC(=O)C(C)(C)C)c4nccnc4n(CC(F)F)c3=O)ccc2o1 [Compound C6],,,,,little or no damage,0,3,2,0,0,
"Cc1nc(Cl)sc1-c1c(OC(=O)C(C)C)c2nccnc2n(C)c1=O [Compound B2, isobutyric acid 7-(2-chloro-4-methyl-thiazol-5-yl)-5-methyl-6-oxo-5,6-dihydro-pyrido[2,3-b]pyrazin-8-yl ester]",0,0,5,0,,,,,,,
CCn1c(=O)c(-c2sc(Cl)nc2C)c(OC(=O)C(C)(C)C)c2nccnc21 [Compound B4],0,3,8,2,,,,,,,
"CC(C)(C)C(=O)Oc1c(-c2c(Cl)cncc2Cl)c(=O)[nH]c2nccnc12 [Compound A8, 2,2-Dimethyl-propionic acid 7-(3,5-dichloro-pyrid-4-yl)-6-oxo-5,6-dihydro-pyrido[2,3-b]pyrazin-8-yl ester]",,,,,little or no damage,0,0,1,0,1,
"CC(C)C(=O)Oc1c(-c2c(C(F)(F)F)nn(C)c2OC(F)F)c(=O)n(CC(F)F)c2nccnc12 [Compound B24, isobutyric acid 7-(5-difluoromethoxy-1-methyl-3-trifluoromethyl-1H-pyrazol-4-yl)-5-(2,2-difluoro-ethyl)-6-oxo-5,6-dihydro-pyrido[2,3-b]pyrazin-8-yl ester]",,,,,,8,9,10,8,8,"SETFA, damage to plant (Setaria faberi [10]): 7; AMARE, damage to plant (Amaranthus retroflexus [11]): 10; SOLNI, damage to plant (Solanum nigrum [12]): 8; ECHCG, damage to plant (Echinochloa crus-galli [13]): 8; IPOHE, damage to plant (Ipomea hederaceae [14]): 5"
CC(C)C(=O)Oc1c(-c2nn(C)nc2C(F)(F)F)c(=O)[nH]c2nccnc12 [Compound B28],,,,,,1,0,1,0,0,"SETFA, damage to plant (Setaria faberi [10]): 0; AMARE, damage to plant (Amaranthus retroflexus [11]): 7; SOLNI, damage to plant (Solanum nigrum [12]): 0; ECHCG, damage to plant (Echinochloa crus-galli [13]): 0; IPOHE, damage to plant (Ipomea hederaceae [14]): 0"
"CC(C)(C)C(=O)Oc1c(-c2ccc(Cl)nc2Cl)c(=O)[nH]c2nccnc12 [Compound A14, 2,2-dimethyl-propionic acid 7-(2,6-dichloro-pyrid-3-yl)-6-oxo-5,6-dihydro-pyrido[2,3-b]pyrazin-8-yl ester]",,,,,,7,5,7,6,4,"SETFA, damage to plant (Setaria faberi [10]): 2; AMARE, damage to plant (Amaranthus retroflexus [11]): 0; SOLNI, damage to plant (Solanum nigrum [12]): 0; ECHCG, damage to plant (Echinochloa crus-galli [13]): 4; IPOHE, damage to plant (Ipomea hederaceae [14]): 0"
"Cc1noc(-c2c(O)c3nccnc3n(C)c2=O)n1 [Compound B5, 8-hydroxy-5-methyl-7-(3-methyl-1,2,4-oxadiazol-5-yl)-5H-pyrido[2,3-b]pyrazin-6-one]",3,0,0,0,,,,,,,
"Cn1c(=O)c(-c2ccc(Cl)nc2Cl)c(OC(=O)C(C)(C)C)c2nccnc21 [Compound A15, 2,2-Dimethyl-propionic acid 7-(2,6-dichloro-pyrid-3-yl)-5-methyl-6-oxo-5,6-dihydro-pyrido[2,3-b]pyrazin-8-yl ester]",,,,,little or no damage,,,,,,"SETFA, damage to plant (Setaria faberi [3]; 250 g/ha): 0; AMARE, damage to plant (Amaranthus retroflexus [4]; 250 g/ha): 2; SOLNI, damage to plant (Solanum nigrum [5]; 250 g/ha): 4; ECHCG, damage to plant (Echinochloa crus-galli [6]; 250 g/ha): 3; IPOHE, damage to plant (Ipomea hederaceae [7]; 250 g/ha): 4"
"CCn1c(=O)c(-c2ncc(Cl)cc2Cl)c(OC(=O)C(C)C)c2nccnc21 [Compound A6, isobutyric acid 7-(3,5-dichloro-pyrid-2-yl)-5-ethyl-6-oxo-5,6-dihydro-pyrido[2,3-b]pyrazin-8-yl ester]",2,0,5,3,,,,,,,
"O=c1[nH]c2nccnc2c(O)c1-c1ccc(Cl)nc1Cl [Compound A13, 7-(2,6-dichloro-pyrid-3-yl)-8-hydroxy-5H-pyrido[2,3-b]pyrazin-6-one]",,,,,little or no damage,6,6,5,6,6,
O=c1[nH]c2nccnc2c(O)c1-c1sc(Cl)nc1C(F)(F)F [Compound B11],3,2,5,5,,,,,,,
